Measurements taken from US20230085307A1, “PYRIDAZINONE COMPOUND AND HERBICIDE” (NISSAN CHEMICAL CORPORATION, priority 2019, published 2023).

Assays:
[1] = tested on: velvetleaf; test: Test Example 5: herbicidal effect by foliage application, plastic box (Table 20, symbol M); assay type: in vivo, velvetleaf (Abutilon theophrasti); settings: foliage application, three weeks after application
How it was run: (§1)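 Post-emergence foliar test in sterilized diluvial soil. Compound applied as water-diluted emulsion at a predetermined rate to 14-day-old plants; evaluation at three weeks.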

[2] = tested on: windgrass; test: Test Example 4: herbicidal effect by soil treatment (Table 19, symbol L); assay type: in vivo, windgrass (Apera spica-venti); settings: for herbicidal effect, L: windgrass: amount of applied herbicide 320 g/ha
How it was run: (§2)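 Emulsion of test compound, water-diluted to predetermined amount, sprayed on soil after sowing (seed depth ~1.5 cm, sterilized diluvial soil). Greenhouse, 25–30° C. Effect graded at three weeks post-spray.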

[3] = tested on: Chinese sprangletop; test: Test Example 3: herbicidal effect by foliage application, Wagner pot (Table 18, symbol D); assay type: in vivo, chinese sprangletop (Leptochloa chinensis); settings: for herbicidal effect on D: Chinese sprangletop: amount of applied herbicide 320 g/ha
How it was run: (§3)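 Plants were sown in alluvial soil held under 0.1–0.5 cm standing water and grown 14 days in a greenhouse at 25–30 °C. An emulsifiable formulation, water-diluted to the set dose, was then sprayed onto the foliage, and effects were scored three weeks later using previously defined criteria.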

[4] = tested on: windgrass; test: Test Example 5: herbicidal effect by foliage application, plastic box (Table 20, symbol L); assay type: in vivo, windgrass (Apera spica-venti); settings: foliage application, three weeks after application
How it was run: as §1

[5] = tested on: redroot pigweed; test: Test Example 4: herbicidal effect by soil treatment (Table 19, symbol N); assay type: in vivo, redroot pigweed (Amaranthus retroflexus); settings: for herbicidal effect, N: redroot pigweed: amount of applied herbicide 320 g/ha
How it was run: as §2

[6] = tested on: barnyard grass; test: Test Example 3: herbicidal effect by foliage application, Wagner pot (Table 18, symbol H); assay type: in vivo, barnyard grass (Echinochloa crus-galli); settings: for herbicidal effect on H: barnyard grass: amount of applied herbicide 320 g/ha
How it was run: as §3

[7] = tested on: velvetleaf; test: Test Example 4: herbicidal effect by soil treatment (Table 19, symbol M); assay type: in vivo, velvetleaf (Abutilon theophrasti); settings: for herbicidal effect, M: velvetleaf: amount of applied herbicide 320 g/ha
How it was run: as §2

[8] = tested on: late watergrass; test: Test Example 1: herbicidal activity, application before weed generation under submerged conditions (Table 16, symbol A); assay type: in vivo, late watergrass (Echinochloa oryzicola)
How it was run: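 Submerged Wagner pots (alluvial soil, 4 cm water) sown with weed seeds and planted with 2.5-leaf rice seedlings; emulsifiable concentrate diluted in water applied to water surface on sowing day. Held in greenhouse at 25-30 °C; injury scored 0-5 by herbicidal rate after three weeks.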

[9] = tested on: late watergrass; test: Test Example 2: herbicidal activity, application during weed generation under submerged conditions (Table 17, symbol A); assay type: in vivo, late watergrass (Echinochloa oryzicola); settings: application during weed generation, submerged conditions
How it was run: (§4)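 Wagner pot, alluvial soil, 4 cm flood; mixed sowing of all species; greenhouse 25° C.–30° C. Emulsifiable formulation, water-diluted to predetermined dose, applied to paddy water at 1–2 leaf stage. Effect rated at 3 wk using the earlier test's scoring criteria.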

[10] = tested on: false cleavers; test: Test Example 4: herbicidal effect by soil treatment (Table 19, symbol Q); assay type: in vivo, false cleavers (Galium spurium); settings: for herbicidal effect, Q: false cleavers: amount of applied herbicide 320 g/ha
How it was run: as §2

[11] = tested on: barnyard grass; test: Test Example 5: herbicidal effect by foliage application, plastic box (Table 20, symbol H); assay type: in vivo, barnyard grass (Echinochloa crus-galli); settings: foliage application, three weeks after application
How it was run: as §1

[12] = tested on: green foxtail; test: Test Example 5: herbicidal effect by foliage application, plastic box (Table 20, symbol G); assay type: in vivo, green foxtail (Setaria viridis); settings: foliage application, three weeks after application
How it was run: as §1

[13] = tested on: redroot pigweed; test: Test Example 5: herbicidal effect by foliage application, plastic box (Table 20, symbol N); assay type: in vivo, redroot pigweed (Amaranthus retroflexus); settings: foliage application, three weeks after application
How it was run: as §1

[14] = tested on: lambsquarters; test: Test Example 5: herbicidal effect by foliage application, plastic box (Table 20, symbol O); assay type: in vivo, lambsquarters (Chenopodium album); settings: foliage application, three weeks after application
How it was run: as §1

[15] = tested on: wild oat; test: Test Example 5: herbicidal effect by foliage application, plastic box (Table 20, symbol I); assay type: in vivo, wild oat (Avena fatua); settings: foliage application, three weeks after application
How it was run: as §1

[16] = tested on: oval-leafed pondweed; test: Test Example 2: herbicidal activity, application during weed generation under submerged conditions (Table 17, symbol C); assay type: in vivo, oval-leafed pondweed (Monochoria vaginalis); settings: application during weed generation, submerged conditions
How it was run: as §4

[17] = tested on: green foxtail; test: Test Example 4: herbicidal effect by soil treatment (Table 19, symbol G); assay type: in vivo, green foxtail (Setaria viridis); settings: for herbicidal effect, G: green foxtail: amount of applied herbicide 320 g/ha
How it was run: as §2

[18] = amount of applied herbicide 320 g/ha
[19] = amount of applied herbicide 224 g/ha
[20] = amount of applied herbicide 304 g/ha

Row | Structure (SMILES) | M: velvetleaf, herbicidal effect grade ([1]; 320 g/ha) | herbicidal effect, L: windgrass [2] | herbicidal effect on D: Chinese sprangletop [3] | L: windgrass, herbicidal effect grade ([4]; 320 g/ha) | herbicidal effect, N: redroot pigweed [5] | herbicidal effect on H: barnyard grass [6] | herbicidal effect, M: velvetleaf [7] | Herbicidal effect, A: late watergrass [8, 18] | herbicidal effect rating, A: late watergrass ([9]; AAH 320 g/ha) | herbicidal effect, Q: false cleavers [10] | H: barnyard grass, herbicidal effect grade ([11]; 320 g/ha) | G: green foxtail, herbicidal effect grade ([12]; 320 g/ha) | N: redroot pigweed, herbicidal effect grade ([13]; 320 g/ha) | O: lambsquarters, herbicidal effect grade ([14]; 320 g/ha) | I: wild oat, herbicidal effect grade ([15]; 320 g/ha) | herbicidal effect rating, C: oval-leafed pondweed ([16]; AAH 320 g/ha) | herbicidal effect, G: green foxtail [17] | further results
1 | COc1ccc(-c2sc3cc(F)ccc3c2-c2c(O)c(C)nn(C)c2=O)cc1 [3-005] | 5 (Herbicidal rate of 90% or more (almost completely withered)) | 0 (Herbicidal rate of 5% or less (almost no effect)) | 3 (Herbicidal rate of 40% or more and less than 70%) | 3 (Herbicidal rate of 40% or more and less than 70%) | 5 (Herbicidal rate of 90% or more (almost completely withered)) | 5 (Herbicidal rate of 90% or more (almost completely withered)) | 3 (Herbicidal rate of 40% or more and less than 70%) | 4 (Herbicidal rate of 70% or more and less than 90%) | 3 (Herbicidal rate of 40% or more and less than 70%) | 0 (Herbicidal rate of 5% or less (almost no effect)) | 3 (Herbicidal rate of 40% or more and less than 70%) | 4 (Herbicidal rate of 70% or more and less than 90%) | 5 (Herbicidal rate of 90% or more (almost completely withered)) | 5 (Herbicidal rate of 90% or more (almost completely withered)) | 3 (Herbicidal rate of 40% or more and less than 70%) | 4 (Herbicidal rate of 70% or more and less than 90%) | 3 (Herbicidal rate of 40% or more and less than 70%) | 
2 | CCCC(=O)Oc1c(C)nn(C)c(=O)c1-c1c(-c2ccccc2OCC)sc2cc(F)ccc12 [3-007] | 5 (Herbicidal rate of 90% or more (almost completely withered)) | 5 (Herbicidal rate of 90% or more (almost completely withered)) | 5 (Herbicidal rate of 90% or more (almost completely withered)) | 5 (Herbicidal rate of 90% or more (almost completely withered)) | 4 (Herbicidal rate of 70% or more and less than 90%) | 5 (Herbicidal rate of 90% or more (almost completely withered)) | 4 (Herbicidal rate of 70% or more and less than 90%) | 5 (Herbicidal rate of 90% or more (almost completely withered)) | 3 (Herbicidal rate of 40% or more and less than 70%) | 5 (Herbicidal rate of 90% or more (almost completely withered)) | 5 (Herbicidal rate of 90% or more (almost completely withered)) | 5 (Herbicidal rate of 90% or more (almost completely withered)) | 5 (Herbicidal rate of 90% or more (almost completely withered)) | 5 (Herbicidal rate of 90% or more (almost completely withered)) | 5 (Herbicidal rate of 90% or more (almost completely withered)) | 4 (Herbicidal rate of 70% or more and less than 90%) | 3 (Herbicidal rate of 40% or more and less than 70%) | 
3 | CCCC(=O)Oc1c(C)nn(C)c(=O)c1-c1c(-c2ccccc2OC)sc2cc(C)ccc12 [3-050] |  |  |  |  |  |  |  |  |  |  |  |  |  |  |  |  |  | M: velvetleaf, herbicidal effect grade ([1]; 224 g/ha): 4 (Herbicidal rate of 70% or more and less than 90%); L: windgrass, herbicidal effect grade [2, 19]: 2 (Herbicidal rate of 20% or more and less than 40%); herbicidal effect on Chinese sprangletop (D) ([3]; 224 g/ha): 3 (Herbicidal rate of 40% or more and less than 70%); L: windgrass, herbicidal effect grade ([4]; 224 g/ha): 4 (Herbicidal rate of 70% or more and less than 90%); N: redroot pigweed, herbicidal effect grade [5, 19]: 0 (Herbicidal rate of 5% or less (almost no effect)); herbicidal effect on barnyard grass (H) ([6]; 224 g/ha): 4 (Herbicidal rate of 70% or more and less than 90%); M: velvetleaf, herbicidal effect grade [7, 19]: 0 (Herbicidal rate of 5% or less (almost no effect)); Herbicidal effect, A: late watergrass [8, 19]: 2 (Herbicidal rate of 20% or more and less than 40%); herbicidal effect rating, A: late watergrass ([9]; AAH 224 g/ha): 0 (Herbicidal rate of 5% or less (almost no effect)); Q: false cleavers, herbicidal effect grade [10, 19]: 0 (Herbicidal rate of 5% or less (almost no effect)); H: barnyard grass, herbicidal effect grade ([11]; 224 g/ha): 4 (Herbicidal rate of 70% or more and less than 90%); G: green foxtail, herbicidal effect grade ([12]; 224 g/ha): 3 (Herbicidal rate of 40% or more and less than 70%); N: redroot pigweed, herbicidal effect grade ([13]; 224 g/ha): 4 (Herbicidal rate of 70% or more and less than 90%); O: lambsquarters, herbicidal effect grade ([14]; 224 g/ha): 0 (Herbicidal rate of 5% or less (almost no effect)); I: wild oat, herbicidal effect grade ([15]; 224 g/ha): 4 (Herbicidal rate of 70% or more and less than 90%); herbicidal effect rating, C: oval-leafed pondweed ([16]; AAH 224 g/ha): 3 (Herbicidal rate of 40% or more and less than 70%); G: green foxtail, herbicidal effect grade [17, 19]: 0 (Herbicidal rate of 5% or less (almost no effect))
4 | CCCC(=O)Oc1c(C)nn(C)c(=O)c1-c1c(-c2ccccc2OCC)sc2cc(C)ccc12 [3-054] |  |  |  |  |  |  |  |  |  |  |  |  |  |  |  |  |  | M: velvetleaf, herbicidal effect grade ([1]; 304 g/ha): 4 (Herbicidal rate of 70% or more and less than 90%); L: windgrass, herbicidal effect grade [2, 20]: 3 (Herbicidal rate of 40% or more and less than 70%); herbicidal effect on Chinese sprangletop (D) ([3]; 304 g/ha): 3 (Herbicidal rate of 40% or more and less than 70%); L: windgrass, herbicidal effect grade ([4]; 304 g/ha): 4 (Herbicidal rate of 70% or more and less than 90%); N: redroot pigweed, herbicidal effect grade [5, 20]: 1 (Herbicidal rate of 5% or more and less than 20%); herbicidal effect on barnyard grass (H) ([6]; 304 g/ha): 5 (Herbicidal rate of 90% or more (almost completely withered)); M: velvetleaf, herbicidal effect grade [7, 20]: 0 (Herbicidal rate of 5% or less (almost no effect)); Herbicidal effect, A: late watergrass [8, 20]: 5 (Herbicidal rate of 90% or more (almost completely withered)); herbicidal effect rating, A: late watergrass ([9]; AAH 304 g/ha): 2 (Herbicidal rate of 20% or more and less than 40%); Q: false cleavers, herbicidal effect grade [10, 20]: 2 (Herbicidal rate of 20% or more and less than 40%); H: barnyard grass, herbicidal effect grade ([11]; 304 g/ha): 4 (Herbicidal rate of 70% or more and less than 90%); G: green foxtail, herbicidal effect grade ([12]; 304 g/ha): 5 (Herbicidal rate of 90% or more (almost completely withered)); N: redroot pigweed, herbicidal effect grade ([13]; 304 g/ha): 5 (Herbicidal rate of 90% or more (almost completely withered)); O: lambsquarters, herbicidal effect grade ([14]; 304 g/ha): 4 (Herbicidal rate of 70% or more and less than 90%); I: wild oat, herbicidal effect grade ([15]; 304 g/ha): 5 (Herbicidal rate of 90% or more (almost completely withered)); herbicidal effect rating, C: oval-leafed pondweed ([16]; AAH 304 g/ha): 3 (Herbicidal rate of 40% or more and less than 70%); G: green foxtail, herbicidal effect grade [17, 20]: 3 (Herbicidal rate of 40% or more and less than 70%)
